In US6506580B1, “Splice variants for human 5-HT4 serotonin receptor and their applications, in particular for screening” (Institut National de la Sante et de la Recherche Medicale …, priority 1997, dated 2003):

How the values were obtained:
Type in all cases: cell-based
[1] = test system: “blank”-transfected COS-7 cells; assay: cAMP formation in control COS-7 cells; conditions: 1 μM
Protocol: (§1) The entire coding region of the cDNAs of 5-HT4(a), 5-HT4(b), 5-HT4(c) and 5-T4(d) was subcloned into a mammalian expression vector pRC/CMV (Invitrogen, Carlsbad, Calif.). The transfections were carried out using polyethyleneimine (PEI) as described in Boussif et al. (1995). The cells were transfected using a mixture of DNA and of PEI in a ratio of 20 μmol of PEI/mg of DNA in 0.9% NaCl. For the radioligand binding assays, the COS-7 cells were seeded into culture flasks of 1.5×10^4 mm^2 one day before the transfection, at a density of 1×10^7 cells/flask, incubated for six hours with plasmid DNA (150 μg/flask) and collected 48 hours after transfection. For the measurement of cAMP formation, the COS-7 cells were seeded onto twelve-well plates one day before transfection, at a density of 5×10^5 cells/well, incubated for six hours with plasmid DNA (4 to 8 μg/well according to the experiments) and assayed 24 hours after the transfection. The cells transfected with the receptor 5-HT4 cDNA constructs were compared with the “blank”-transfected cells, which were exposed to the unmodified pRC/CMV plasmid.
(§2) To measure intracellular cAMP accumulation, the transiently transfected COS-7 cells were incubated, 24 hours after transfection, in Dulbecco's modified Eagle medium (DMEM) containing 5 mM theophylline, 10 mM HEPES and 10 μM pargyline for 15 minutes at 37° C., in the presence of 5% CO2. […] The reaction was stopped by aspiration of the medium and addition of 500 μl of ice-cold ethanol. After one hour at room temperature, the cells were scraped, and everything was collected and freeze-dried. The pellet was resuspended in 350 μl of PBS and centrifuged for 5 min at 300 g. The cAMP was quantified in the supernatant using a radioimmunological assay (E.R.I.A. assay kit from Pasteur Diagnostics 79830). Student's t tests were carried out using the program Quick TEst.

h5-HT4(d) = molecular target: T1, h5-HT4(d) (Homo sapiens, UniProt Q13639); assay: cAMP formation in stably transfected CHO cells; conditions: 1 μM, 15 minutes
T1 construct: The entire coding region of the 5-HT4(c) and 5-HT4(d) cDNAs was subcloned; expressed in transfected cells
T1 sequence (Q13639 1-360 isoform Q13639-3): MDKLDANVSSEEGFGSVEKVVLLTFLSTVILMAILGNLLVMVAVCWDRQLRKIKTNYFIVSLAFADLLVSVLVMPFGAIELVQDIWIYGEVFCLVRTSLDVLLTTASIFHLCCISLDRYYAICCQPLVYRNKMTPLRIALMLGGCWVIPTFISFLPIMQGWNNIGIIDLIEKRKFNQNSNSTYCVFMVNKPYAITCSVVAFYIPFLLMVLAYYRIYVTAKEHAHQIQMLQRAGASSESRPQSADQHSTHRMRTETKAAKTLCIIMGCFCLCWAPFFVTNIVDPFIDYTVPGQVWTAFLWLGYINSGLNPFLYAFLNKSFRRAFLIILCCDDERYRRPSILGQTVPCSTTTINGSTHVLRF
Protocol: (§3) The entire coding region of the 5-HT4(c) and 5-HT4(d) cDNAs was subcloned into a mammalian expression vector pRC/CMV (Invitrogen, Carlsbad, Calif.). The CHO cells are stably transfected by electroporation (250 V, 960 μF) with the plasmid PRc/CMV, containing the clone h5-HT4(c) or h5-HT4(d), cleaved with the restriction enzyme Kpn1 (10 μg of plasmid for 10^7 cells). The cells are cultured in HAM-F12 medium supplemented with 10% of heat-inactivated foetal calf serum. […] Twelve days later, the clones are individualized and cultured in 12-well plates. […] For the radioligand binding assays or for the measurement of cAMP formation, the cells transfected with the receptor 5-HT4 cDNA constructs were compared with the “blank”-transfected cells, which were exposed to the unmodified pRC/CMV plasmid.
(§4) To measure intracellular cAMP accumulation, the stably transfected CHO cells were incubated in the HAM-F12 medium containing 5 mM theophylline, 10 mM HEPES and 10 μM pargyline, for 15 minutes at 37° C. in the presence of 5% CO2. […] The reaction was stopped by aspiration of the medium and addition of 500 μl of ice-cold ethanol. After one hour at room temperature, the cells were scraped, and everything was collected and freeze-dried. […] The cAMP was quantified in the supernatant using a radio-immunological assay (E.R.I.A. assay kit from Immunotech, Marseilles). […]

h5-HT4(c) = molecular target: T2, h5-HT4(c) (Homo sapiens, UniProt Q13639); assay: cAMP formation in stably transfected CHO cells; conditions: 1 μM, 15 minutes
T2 construct: The entire coding region of the 5-HT4(c) and 5-HT4(d) cDNAs was subcloned; expressed in transfected cells
T2 sequence (Q13639 1-380 isoform Q13639-4): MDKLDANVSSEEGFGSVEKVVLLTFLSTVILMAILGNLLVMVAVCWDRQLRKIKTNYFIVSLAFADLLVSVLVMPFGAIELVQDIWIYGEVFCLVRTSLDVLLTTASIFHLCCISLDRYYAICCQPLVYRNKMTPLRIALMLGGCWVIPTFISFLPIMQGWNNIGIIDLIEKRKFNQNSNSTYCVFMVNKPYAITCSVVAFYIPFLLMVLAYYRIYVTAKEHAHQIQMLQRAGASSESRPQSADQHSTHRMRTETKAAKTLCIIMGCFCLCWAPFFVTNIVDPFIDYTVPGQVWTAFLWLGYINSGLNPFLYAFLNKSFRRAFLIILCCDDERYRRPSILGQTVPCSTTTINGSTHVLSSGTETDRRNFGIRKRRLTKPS
Protocol: as §3, §4

receptor 5-HT4(c) = receptor 5-HT4(c) (Homo sapiens, UniProt Q13639); assay: cAMP formation in transiently transfected COS-7 cells; set-up: The entire coding region of the cDNAs of 5-HT4(a), 5-HT4(b), 5-HT4(c) and 5-T4(d) was subcloned; expressed in transfected cells; host or cells: COS-7 cells, transient, pRC/CMV vector; cDNA amplified from human brain and ileum RNA; conditions: for increase in the basal cAMP level: 1 μM
receptor 5-HT4(c), sequence (Q13639 1-380 isoform Q13639-4): as above
Protocol: as §1, §2
ML10375 is capable of reducing the cAMP levels in the cells expressing the 5-HT4(c) and 5-HT4(d) isoforms in the absence of any stimulation of the receptor by 5-HT4 agonists. To test the hypothesis that ML10375 may constitute a reverse agonist for the human receptor 5-HT4, the 5-HT4(c) isoform was overexpressed in COS-7 cells in order to increase the frequency of the spontaneously active state of the receptor. The COS-7 cells were transfected with 4 to 8 μg of plasmid DNA per well in order to obtain an increase in the expression levels of the receptor 5-HT4(c). […] (FIG. 6B).

[2] = test system: “blank”-transfected CHO cells; assay: cAMP formation in control CHO cells; conditions: 1 μM
Protocol: The entire coding region of the 5-HT4(c) and 5-HT4(d) cDNAs was subcloned into a mammalian expression vector pRC/CMV (Invitrogen, Carlsbad, Calif.). The CHO cells are stably transfected by electroporation (250 V, 960 μF) with the plasmid PRc/CMV, containing the clone h5-HT4(c) or h5-HT4(d), cleaved with the restriction enzyme Kpn1 (10 μg of plasmid for 10^7 cells). The cells are cultured in HAM-F12 medium supplemented with 10% of heat-inactivated foetal calf serum. […] Twelve days later, the clones are individualized and cultured in 12-well plates. Clone selection is carried out by studying the stimulation of the cAMP formed in the presence of 1 μM serotonin. For the radioligand binding assays or for the measurement of cAMP formation, the cells transfected with the receptor 5-HT4 cDNA constructs were compared with the “blank”-transfected cells, which were exposed to the unmodified pRC/CMV plasmid.
as §4, with “ethanol.” for “ethanol. After one hour at room temperature, the cells were scraped, and everything was collected and freeze-dried.”

receptor 5-HT4(d) = receptor 5-HT4(d) (Homo sapiens, UniProt Q13639); assay: cAMP formation in transiently transfected COS-7 cells; set-up: The entire coding region of the cDNAs of 5-HT4(a), 5-HT4(b), 5-HT4(c) and 5-T4(d) was subcloned; expressed in transfected cells; host or cells: COS-7 cells, transient, pRC/CMV vector; cDNA amplified from human brain and ileum RNA; conditions: COS-7, 1 μM agonist, 15 minutes
receptor 5-HT4(d), sequence (Q13639 1-360 isoform Q13639-3): as the sequence (Q13639 1-360 isoform Q13639-3) above
Protocol: The entire coding region of the cDNAs of 5-HT4(a), 5-HT4(b), 5-HT4(c) and 5-T4(d) was subcloned into a mammalian expression vector pRC/CMV (Invitrogen, Carlsbad, Calif.). The transfections were carried out using polyethyleneimine (PEI) as described in Boussif et al. (1995). The cells were transfected using a mixture of DNA and of PEI in a ratio of 20 μmol of PEI/mg of DNA in 0.9% NaCl. For the radioligand binding assays, the COS-7 cells were seeded into culture flasks of 1.5×10^4 mm^2 one day before the transfection, at a density of 1×10^7 cells/flask, incubated for six hours with plasmid DNA (150 μg/flask) and collected 48 hours after transfection. For the measurement of cAMP formation, the COS-7 cells were seeded onto twelve-well plates one day before transfection, at a density of 5×10^5 cells/well, incubated for six hours with plasmid DNA (4 to 8 μg/well according to the experiments) and assayed 24 hours after the transfection. […]
To measure intracellular cAMP accumulation, the transiently transfected COS-7 cells were incubated, 24 hours after transfection, in Dulbecco's modified Eagle medium (DMEM) containing 5 mM theophylline, 10 mM HEPES and 10 μM pargyline for 15 minutes at 37° C., in the presence of 5% CO2. […] The cAMP was quantified in the supernatant using a radioimmunological assay (E.R.I.A. assay kit from Pasteur Diagnostics 79830). […]

receptor 5-HT4(b) = molecular target: T3, receptor 5-HT4(b) (Homo sapiens, UniProt Q13639); assay: as above; conditions: COS-7, 1 μM agonist, 15 minutes
T3 construct: The entire coding region of the cDNAs of 5-HT4(a), 5-HT4(b), 5-HT4(c) and 5-T4(d) was subcloned; expressed in transfected cells; host or cells: COS-7 cells, transient, pRC/CMV vector; cDNA amplified from human brain and ileum RNA
T3 sequence (Q13639 whole entry): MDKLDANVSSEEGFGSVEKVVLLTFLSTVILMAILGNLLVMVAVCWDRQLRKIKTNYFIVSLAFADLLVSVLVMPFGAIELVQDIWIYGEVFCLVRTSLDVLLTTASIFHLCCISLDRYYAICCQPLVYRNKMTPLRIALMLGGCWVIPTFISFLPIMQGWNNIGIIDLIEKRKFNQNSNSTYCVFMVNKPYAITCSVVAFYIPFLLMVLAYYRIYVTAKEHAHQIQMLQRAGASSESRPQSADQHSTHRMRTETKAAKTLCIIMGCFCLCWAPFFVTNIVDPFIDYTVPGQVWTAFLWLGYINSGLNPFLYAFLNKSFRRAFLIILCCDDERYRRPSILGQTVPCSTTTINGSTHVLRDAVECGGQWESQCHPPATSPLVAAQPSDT
Protocol: as §1, §2

receptor 5-HT4(a) = molecular target: T4, receptor 5-HT4(a) (Homo sapiens, UniProt Q13639); assay: as above; conditions: COS-7, 1 μM agonist, 15 minutes
T4 construct: The entire coding region of the cDNAs of 5-HT4(a), 5-HT4(b), 5-HT4(c) and 5-T4(d) was subcloned; expressed in transfected cells; host or cells: COS-7 cells, transient, pRC/CMV vector
T4 sequence (Q13639 1-387 isoform Q13639-2): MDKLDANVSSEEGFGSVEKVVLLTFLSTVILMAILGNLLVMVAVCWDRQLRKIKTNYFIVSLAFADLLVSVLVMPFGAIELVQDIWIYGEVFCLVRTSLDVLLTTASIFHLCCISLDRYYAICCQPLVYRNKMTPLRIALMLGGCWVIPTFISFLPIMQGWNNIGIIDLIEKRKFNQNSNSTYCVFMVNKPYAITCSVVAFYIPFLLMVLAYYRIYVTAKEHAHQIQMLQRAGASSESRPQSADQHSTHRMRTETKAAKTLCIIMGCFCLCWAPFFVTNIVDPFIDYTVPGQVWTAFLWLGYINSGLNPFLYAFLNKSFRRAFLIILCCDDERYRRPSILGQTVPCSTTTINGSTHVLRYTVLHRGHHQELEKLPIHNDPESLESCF
Protocol: as §1, §2

SMILES: NCCc1c[nH]c2ccc(O)cc12 [5-HT, 5-hydroxytryptamine]
- effect on basal adenylate cyclase activity / basal cAMP levels [1]: no effect
- increase in cAMP concentration (h5-HT4(d)): 118%
- increase in cAMP concentration (h5-HT4(c)): 91%
- increase in cAMP concentration (receptor 5-HT4(c); COS-7, 1 μM agonist, 15 minutes): 64%
- increase in the basal cAMP level (receptor 5-HT4(c); COS-7 transfected with 4 μg of plasmid DNA): 64%
- increase in the basal cAMP level (receptor 5-HT4(c); COS-7 transfected with 8 μg of plasmid DNA): did not significantly increase
- effect on cAMP [2]: no effect
- increase in cAMP concentration (receptor 5-HT4(d)): 77%
- increase in cAMP concentration (receptor 5-HT4(b)): 85%
- increase in cAMP concentration (receptor 5-HT4(a)): 82%
